Results as given in US12077495B2 (priority 2018, dated 2024).

Columns and labels:
rodents = assay: Observation of acute toxicity or sedation in rodents; assay type: in vivo; settings: doses as high as 500 mg/kg
[1] = peripheral administration; cited from earlier work
[2] = target: T1, high-affinity forebrain binding sites (Mus musculus, UniProt P11798); assay: Ex vivo 3H-A radioligand binding, autoradiography of mouse brain sections; assay type: in vivo, mice; settings: 5 MBq per mouse i.p.; 30 min
T1 construct: from tissue; host or cells: C57BL/6J mouse brain (hippocampus, cortex) after i.p. injection of 3H-A
Protocol: ^3H-A was used to perform ex vivo binding to C57BL/6J mice. Thus, in a design with 5 mice per group, ^3H-A (5 MBq per mouse) was injected i.p. After 30 min, the brains were dissected and autoradiography performed.

CAMK2A = target: T2, CAMK2A (Rattus norvegicus, UniProt P11275); assay: biochemical; assay type: binding; settings: non-specific: 1 mM GHB
T2 construct: host or cells: HEK293T
Protocol: Cells were transfected with rat CAMK2A (Origene construct RR201121) or rat CAMK2B (Origene construct RR200520) using PolyFect (Qiagen, West Sussex, UK) according to the manufacturer's protocol. Whole cell homogenates were prepared 48 hr post-transfection by washing the cells with ice-cold 1×PBS and harvesting by scraping. Cells were collected and centrifuged for 10 min at 1000×g. Cell pellets were resuspended in ice-cold 1×PBS and homogenized using 2×1 mm zirkonium beads in a bullet blender for 20 s at max speed (NextAdvance, NY, USA). Homogenates were cleared by centrifugation (10 min, 4° C., 14.000×g). Protein concentration was determined using the Bradford protein assay. 150-200 μg protein was incubated with 5 nM ^3H-A and test compound in 1 ml total volume for 1 hr at 0-4° C. […] Proteins were then precipitated by addition of ice-cold acetone (4× of the assay volume), vortexing and incubation at −20° C. for 1 hr. Proteins were filtrated rapidly through GF/C unifilters (Whatman) and washed. The dried filters were added scintillation liquid and radioactivity measured on a Tricarb 2100 Scintillation counter (Packard).
A) Principle of photoaffinity labelling workflow. […] After introduction of biotin through a Staudinger-Bertozzi ligation to EZ-Link™ Phosphine-PEG3-Biotin (ThermoFisher Scientific), the biotin-labelled proteins were affinity-purified and subjected to LC-MS/MS analysis. […] C)^3H-A binding to cortical membranes from CAMK2A and CAMK2B knock-out mouse brains.
Human/rat CAMK2A expressed in HEK cells was assayed in an in-house established ^3H-A filtration binding assay performed on whole cell lysates of CAMK2A-transfected HEK293T cells.

CAMK2B = target: T3, CAMK2B (Rattus norvegicus, UniProt P08413); assay: 3H-A binding to recombinant CAMK2B expressed in HEK293T cells; settings: HEK293T whole cell homogenate
T3 construct: host or cells: HEK293T
Protocol: HEK293T were cultured using standard conditions, using Dulbecco's modified Eagle Medium with GlutaMax, 10% fetal bovine serum and 1% penicillin-streptomycin, and incubated at 37° C. in a humidified atmosphere of […] and 5% CO2. Cells were transfected with rat CAMK2A (Origene construct RR201121) or rat CAMK2B (Origene construct RR200520) using PolyFect (Qiagen, West Sussex, UK) according to the manufacturer's protocol. Whole cell homogenates were prepared 48 hr post-transfection by washing the cells with ice-cold 1×PBS and harvesting by scraping. Cells were collected and centrifuged for 10 min at 1000×g. Cell pellets were resuspended in ice-cold 1×PBS and homogenized using 2×1 mm zirkonium beads in a bullet blender for 20 s at max speed (NextAdvance, NY, USA). Homogenates were cleared by centrifugation (10 min, 4° C., 14.000×g). Protein concentration was determined using the Bradford protein assay. 150-200 μg protein was incubated with 5 nM ^3H-A and test compound in 1 ml total volume for 1 hr at 0-4° C. […] Proteins were then precipitated by addition of ice-cold acetone (4× of the assay volume), vortexing and incubation at −20° C. for 1 hr. Proteins were filtrated rapidly through GF/C unifilters (Whatman) and washed. The dried filters were added scintillation liquid and radioactivity measured on a Tricarb 2100 Scintillation counter (Packard). […]

T2 sequence (P11275 whole entry): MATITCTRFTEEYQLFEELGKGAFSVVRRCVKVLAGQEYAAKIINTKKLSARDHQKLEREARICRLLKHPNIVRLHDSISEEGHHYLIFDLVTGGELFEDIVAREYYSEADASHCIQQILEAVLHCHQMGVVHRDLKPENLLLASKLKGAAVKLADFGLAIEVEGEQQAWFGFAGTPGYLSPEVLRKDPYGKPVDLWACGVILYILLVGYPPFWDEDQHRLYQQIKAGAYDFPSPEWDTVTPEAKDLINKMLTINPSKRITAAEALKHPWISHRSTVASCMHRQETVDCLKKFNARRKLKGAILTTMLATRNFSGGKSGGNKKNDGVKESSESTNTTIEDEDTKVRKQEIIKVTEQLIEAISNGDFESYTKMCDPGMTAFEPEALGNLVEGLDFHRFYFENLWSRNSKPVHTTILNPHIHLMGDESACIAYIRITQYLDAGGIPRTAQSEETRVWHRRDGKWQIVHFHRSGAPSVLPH
T1 sequence (P11798 whole entry): as the sequence (P11275 whole entry) above
T3 sequence (P08413 whole entry): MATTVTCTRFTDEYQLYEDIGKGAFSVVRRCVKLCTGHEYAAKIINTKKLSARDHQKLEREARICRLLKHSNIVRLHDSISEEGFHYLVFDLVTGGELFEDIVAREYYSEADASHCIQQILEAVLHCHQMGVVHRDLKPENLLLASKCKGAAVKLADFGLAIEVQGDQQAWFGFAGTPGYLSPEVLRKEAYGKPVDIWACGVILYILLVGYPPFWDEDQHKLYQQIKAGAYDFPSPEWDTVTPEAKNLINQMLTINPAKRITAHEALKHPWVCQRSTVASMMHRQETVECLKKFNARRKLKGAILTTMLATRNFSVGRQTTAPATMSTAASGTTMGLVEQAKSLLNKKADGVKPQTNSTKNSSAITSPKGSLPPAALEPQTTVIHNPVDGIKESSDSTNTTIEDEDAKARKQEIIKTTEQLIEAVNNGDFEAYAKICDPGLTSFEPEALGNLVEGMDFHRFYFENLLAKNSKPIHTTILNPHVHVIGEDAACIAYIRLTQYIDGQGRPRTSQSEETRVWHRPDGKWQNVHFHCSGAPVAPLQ

Row | Compound | acute toxicity or sedation (rodents) | brain entry [1] | ex vivo specific binding in hippocampus and cortex vs cerebellum [2] | specific binding to CAMK2A-transfected HEK293T whole cell homogenate (CAMK2A) [%] | specific binding at CAMK2B (CAMK2B)
1 | O=C([O-])C1=CC(O)CC1.[Na+] (centres unmarked) [sodium salt of A] | no apparent observations of acute toxicity or sedation | readily enters the brain | – | – | –
2 | [3H]C1(O)C=C(C(=O)O)CC1 (centres unmarked) [^3H-A] | – | – | Significant specific binding levels | 87 | no specific binding
